The values below come from patent publication US12570642B2, “GLP-IR modulating compounds” (Gilead Sciences, Inc., priority 2021, dated 2026).

This test has as its target GLP-1R (Homo sapiens, UniProt P43220). Description: GLP-1R Activation - cAMP Assay. As to conditions: cAMP increase in CHO cells stably expressing GLP-1R; each compound run on one of the two cAMP assays (Assay 1 or Assay 2, not specified). Type of test: cell-based. The method, boiled down: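 CHO cells stably expressing GLP-1R, plated at 1,000 cells/well overnight, then equilibrated 1 h in HBSS with 20 mM Hepes and 0.1% BSA. Agonist added as 10-point dose response for 30 min at 37 °C. cAMP measured by HTRF (Cisbio Gs Dynamic kit); EC50 from sigmoidal fit.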
Background: Cyclic AMP is a second messenger, typically raised through Gs and lowered through Gi signalling.

Chain of GLP-1R (P43220 24-463): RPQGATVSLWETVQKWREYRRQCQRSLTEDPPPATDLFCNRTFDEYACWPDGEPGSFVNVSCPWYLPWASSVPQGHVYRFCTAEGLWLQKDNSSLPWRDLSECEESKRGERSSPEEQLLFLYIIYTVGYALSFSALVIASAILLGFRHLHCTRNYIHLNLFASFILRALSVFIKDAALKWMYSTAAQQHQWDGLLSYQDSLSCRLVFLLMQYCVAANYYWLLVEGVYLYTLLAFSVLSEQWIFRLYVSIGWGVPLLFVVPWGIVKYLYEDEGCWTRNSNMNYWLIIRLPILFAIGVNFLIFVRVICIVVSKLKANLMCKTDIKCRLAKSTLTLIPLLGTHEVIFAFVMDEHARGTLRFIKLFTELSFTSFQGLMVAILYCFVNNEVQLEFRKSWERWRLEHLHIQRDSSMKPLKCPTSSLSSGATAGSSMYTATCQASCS

In general, EC50 refers to the midpoint of the concentration-response curve. `CC1(C)COC[C@H]1n1c(Cc2c(F)cc(-c3ccc(F)c(OCc4ccc(Cl)cc4F)n3)c(F)c2F)nc2c(F)cc(C(=O)O)cc21` [Example 336, (S)-2-(4-(6-((4-chloro-2-fluorobenzyl)oxy)-5-fluoropyridin-2-yl)-2,3,6-trifluorobenzyl)-1-(4,4-dimethyltetrahydrofuran-3-yl)-4-fluoro-1H-benzo[d]imidazole-6-carboxylic acid]: the EC50 came out at 0.016 nM.

`N#Cc1ccc(COc2cccc(-c3cc(F)c(Cc4nc5ccc(C(=O)O)cc5n4[C@@H]4CO[C@@H]5CNC[C@H]45)cc3F)n2)c(F)c1` [Example 80, 2-(4-(6-((4-cyano-2-fluorobenzyl)oxy)pyridin-2-yl)-2,5-difluorobenzyl)-1-((3S,3aR,6aS)-hexahydro-2H-furo[2,3-c]pyrrol-3-yl)-1H-benzo[d]imidazole-6-carboxylic Acid] showed an EC50 of 4.91 nM. As for `Cc1ccc(COc2cccc(-c3cc(F)c(Cc4nc5ccc(C(=O)O)cc5n4[C@@H]4COCC4(C)C)cc3F)n2)c(F)c1` [Example 463, (S)-2-(2,5-difluoro-4-(6-((2-fluoro-4-methylbenzyl)oxy)pyridin-2-yl)benzyl)-1-(4,4-dimethyltetrahydrofuran-3-yl)-1H-benzo[d]imidazole-6-carboxylic acid], the figure is 0.209 nM; as for `CC1(C)COC[C@H]1n1c(Cc2cc(F)c(-c3ccnc(OCc4ccc(Cl)cc4F)n3)cc2F)nc2ccc(C(=O)O)cc21` [Example 121, (S)-2-(4-(2-((4-chloro-2-fluorobenzyl)oxy)pyrimidin-4-yl)-2,5-difluorobenzyl)-1-(4,4-dimethyltetrahydrofuran-3-yl)-1H-benzo[d]imidazole-6-carboxylic Acid], 0.083 nM; as for `CC1(C)COC[C@H]1n1c(Cc2c(F)cc(-c3cccc(OCc4ccc(C#N)cc4F)n3)c(F)c2F)nc2ccc(C(=O)O)cc21` [Example 120, (S)-2-(4-(6-((4-cyano-2-fluorobenzyl)oxy)pyridin-2-yl)-2,3,6-trifluorobenzyl)-1-(4,4-dimethyltetrahydrofuran-3-yl)-benzimidazole-6-carboxylic Acid], 0.101 nM.

The molecule `Cc1cc(Cc2nc3c(F)cc(C(=O)O)cc3n2[C@@H]2COCC2(C)C)c(F)cc1-c1ccnc(OCc2ccc(C#N)cc2F)n1` [Example 265, (S)-2-(4-(2-((4-cyano-2-fluorobenzyl)oxy)pyrimidin-4-yl)-2-fluoro-5-methylbenzyl)-1-(4,4-dimethyltetrahydrofuran-3-yl)-4-fluoro-1H-benzo[d]imidazole-6-carboxylic acid] yielded an EC50 of 0.171 nM.

In the case of `CC1(C)COC[C@H]1n1c(Cc2cc(F)c(-c3cccc(OCc4c(F)cc(Cl)cc4F)n3)cc2F)nc2ccc(C(=O)O)cc21` [Example 453, (S)-2-(4-(6-((4-chloro-2,6-difluorobenzyl)oxy)pyridin-2-yl)-2,5-difluorobenzyl)-1-(4,4-dimethyltetrahydrofuran-3-yl)-1H-benzo[d]imidazole-6-carboxylic acid], the EC50 worked out at 0.527 nM. The value for `CC1(C)COC[C@H]1n1c(Cc2cc(F)c(-c3cccc(OCc4ccc(Cl)nc4F)n3)cc2F)nc2ccc(C(=O)O)cc21` [Example 249, (S)-2-(4-(6-((6-chloro-2-fluoropyridin-3-yl)methoxy)pyridin-2-yl)-2,5-difluorobenzyl)-1-(4,4-dimethyltetrahydrofuran-3-yl)-1H-benzo[d]imidazole-6-carboxylic acid] was 0.137 nM; that for `CC1(C)COC[C@H]1n1c(Cc2c(F)cc(-c3ccc(Cl)c(OCc4ccc(C#N)cc4)n3)c(F)c2F)nc2ccc(C(=O)O)cc21` [Example 415, (S)-2-(4-(5-chloro-6-((4-cyanobenzyl)oxy)pyridin-2-yl)-2,3,6-trifluorobenzyl)-1-(4,4-dimethyltetrahydrofuran-3-yl)-1H-benzo[d]imidazole-6-carboxylic acid] was 0.491 nM; that for `CC1(C)COC[C@H]1n1c(Cc2cc(F)c(-c3cccc(OCc4ccc(F)c(F)c4)n3)cc2F)nc2ccc(C(=O)O)cc21` [Example 457, (S)-2-(4-(6-((3,4-difluorobenzyl)oxy)pyridin-2-yl)-2,5-difluorobenzyl)-1-(4,4-dimethyltetrahydrofuran-3-yl)-1H-benzo[d]imidazole-6-carboxylic acid] was 0.157 nM. As to `O=C(O)c1ccc2nc(Cc3cc(F)c(-c4cccc(OCc5ccc6nsnc6c5)n4)cc3F)n(C[C@@H]3CCO3)c2c1` [Example 527, (S)-2-(4-(6-(benzo[c][1,2,5]thiadiazol-5-ylmethoxy)pyridin-2-yl)-2,5-difluorobenzyl)-1-(oxetan-2-ylmethyl)-1H-benzo[d]imidazole-6-carboxylic acid], the EC50 stood at 0.184 nM. Consider `CC1(C)COCC1n1c(Cc2cc(F)c(-c3ccc(F)c(OCc4ccc(C(F)(F)F)cc4F)n3)cc2F)nc2c(F)cc(C(=O)O)cc21` (stereo not drawn) [Example 503, 2-(2,5-difluoro-4-(5-fluoro-6-((2-fluoro-4-(trifluoromethyl)benzyl)oxy)pyridin-2-yl)benzyl)-1-(4,4-dimethyltetrahydrofuran-3-yl)-4-fluoro-1H-benzo[d]imidazole-6-carboxylic acid], for which the EC50 was determined as 0.081 nM.

Turning to `N#Cc1ccc(COc2cccc(-c3cc(F)c(Cc4nc5ccc(C(=O)O)cc5n4[C@@H]4COC[C@H]4C(F)F)cc3F)n2)c(F)c1` (single isomer, unassigned) [Example 261], the concentration for a half-maximal effect (EC50) was 4.08 nM.

Molecule `CC1(C)COC[C@H]1n1c(Cc2cc(F)c(-c3ccc(F)c(OCc4ccc(Cl)cc4)n3)cc2F)nc2c(Cl)cc(C(=O)O)cc21` [Example 441, (S)-4-chloro-2-(4-(6-((4-chlorobenzyl)oxy)-5-fluoropyridin-2-yl)-2,5-difluorobenzyl)-1-(4,4-dimethyltetrahydrofuran-3-yl)-1H-benzo[d]imidazole-6-carboxylic acid] came in with an EC50 of 0.722 nM. The value for `COCCn1c(Cc2c(F)cc(-c3cccc(OCc4ccc(-n5ccnn5)nc4)n3)c(F)c2F)nc2c(F)cc(C(=O)O)cc21` [Example 253, 2-(4-(6-((6-(1H-1,2,3-triazol-1-yl)pyridin-3-yl)methoxy)pyridin-2-yl)-2,3,6-trifluorobenzyl)-4-fluoro-1-(2-methoxyethyl)-1H-benzo[d]imidazole-6-carboxylic acid] was 0.071 nM; that for `O=C(O)c1cc(F)c2nc(Cc3cc(F)c(-c4nccc(OCc5ccc(C(F)(F)F)cc5F)n4)cc3F)n(C[C@@H]3CCO3)c2c1` [Example 149] was 0.082 nM. Molecule `CC1(C)COC[C@H]1n1c(Cn2cc(F)c(-c3ccc(F)c(OCc4ccc(Cl)cc4F)n3)cc2=O)nc2c(F)cc(C(=O)O)cc21` [Example 131, (S)-2-((6-((4-chloro-2-fluorobenzyl)oxy)-5,5′-difluoro-2′-oxo-[2,4′-bipyridin]-1′(2′H)-yl)methyl)-1-(4,4-dimethyltetrahydrofuran-3-yl)-4-fluoro-1H-benzo[d]imidazole-6-carboxylic Acid] yielded an EC50 of 0.145 nM.

With `CC1(C)COC[C@H]1n1c(Cc2ccc(-c3ccc(F)c(OCc4ccc(C#N)cc4F)n3)cc2)nc2ccc(C(=O)O)cc21` [Example 277, (S)-2-(4-(6-((4-cyano-2-fluorobenzyl)oxy)-5-fluoropyridin-2-yl)benzyl)-1-(4,4-dimethyltetrahydrofuran-3-yl)-1H-benzo[d]imidazole-6-carboxylic acid], the midpoint of the response, the EC50, lay at 0.34 nM.
